Assay results published in patent US11725036B2, “Modified lipidated relaxin B chain peptides and their therapeutic use” (Sanofi, priority 2018, dated 2023).
Starred links: 1 amine or outer side, 2 acyl side, 3 side chain; linkers in the order of their positions; H or OH if unused. Non-standard residues stand in square brackets, D forms with d. Residues, ends and D or L forms follow the SMILES beside them. Groups on a side chain read outwards from the residue. *: point of attachment. X1 = CCCCCCCCCCCCCCCC(=O)N[C@@H](CCC(=O)N[C@@H](CCC(=O)N[C@@H](CCC(=O)NCCCOCCOCCOCCCNC(=O)CCC(=O)NCCCOCCOCCOCCCNC(=O)CCC(=O)NCCCOCCOCCOCCCN*)C(=O)O)C(=O)O)C(=O)O; Suc = O=C(CCC(=O)[*:2])[*:1]; αMeK = C[C@](N)(CCCCN)C(=O)O; Aib = CC(C)(N)C(=O)O

Target: T1, RXFP1 (Homo sapiens, UniProt Q9HBX9)
T1 construct: OVCAR5 cells expressing endogenous RXFP1; endogenous in cells; host or cells: OVCAR5
T1 sequence (Q9HBX9 1-757): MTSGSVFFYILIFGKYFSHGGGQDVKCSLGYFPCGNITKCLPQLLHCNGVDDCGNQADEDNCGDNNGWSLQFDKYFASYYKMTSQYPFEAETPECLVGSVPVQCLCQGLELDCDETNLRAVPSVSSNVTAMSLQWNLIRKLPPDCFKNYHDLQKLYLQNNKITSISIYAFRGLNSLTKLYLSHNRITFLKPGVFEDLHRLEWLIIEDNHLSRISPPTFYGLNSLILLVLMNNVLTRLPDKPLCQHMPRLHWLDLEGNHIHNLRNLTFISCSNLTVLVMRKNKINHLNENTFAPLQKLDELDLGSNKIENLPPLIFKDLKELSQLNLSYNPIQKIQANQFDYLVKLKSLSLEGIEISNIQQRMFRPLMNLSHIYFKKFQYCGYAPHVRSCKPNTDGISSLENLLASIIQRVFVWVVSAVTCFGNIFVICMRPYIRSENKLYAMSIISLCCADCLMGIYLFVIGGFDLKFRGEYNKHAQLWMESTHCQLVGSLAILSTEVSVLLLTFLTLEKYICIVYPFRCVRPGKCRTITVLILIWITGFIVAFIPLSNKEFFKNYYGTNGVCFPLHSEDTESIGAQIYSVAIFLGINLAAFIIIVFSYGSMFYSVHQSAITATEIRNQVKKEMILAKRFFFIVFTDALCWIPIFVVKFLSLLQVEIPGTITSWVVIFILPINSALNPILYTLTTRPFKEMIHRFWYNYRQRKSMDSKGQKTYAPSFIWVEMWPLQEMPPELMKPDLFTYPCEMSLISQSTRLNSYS
Test: OVCAR5 cAMP assay (HTRF)
Format: cell-based
Conditions: for EC50: OVCAR 5 cells expressing endogenous RXFP1, cAMP readout; for Emax: OVCAR 5 cells, maximal cAMP relative to H2-relaxin
In short: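 Peptide agonism measured as intracellular cAMP (HTRF) after 30 min at 37° C in serum-free medium, following 40 min 1 mM IBMX preincubation of OVCAR5 cells. Nonlinear regression gave EC50; Emax % = 100 × compound maximal cAMP / H2-relaxin maximal cAMP.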

| EC50 [nM] | Emax [%] | SMILES |
| --- | --- | --- |
| 0.25 | 94 | CCCCCCCCCCCCCCCC(=O)N[C@@H](CCC(=O)N[C@@H](CCC(=O)N[C@@H](CCC(=O)NCCCOCCOCCOCCCNC(=O)CCC(=O)NCCCOCCOCCOCCCNC(=O)CCC(=O)NCCCOCCOCCOCCCNC(=O)CCC(=O)NCCCC[C@H](NC(=O)CNC(=O)[C@H](CCC(=O)O)NC(=O)C(C)(C)NC(=O)C(C)(C)NC(=O)[C@@H](NC(=O)[C@H](CCCCNC(C)=O)NC(=O)[C@H](C)NC(=O)[C@H](CCCNC(=N)N)NC(=O)[C@@H](NC(=O)[C@H](CCCCN)NC(=O)[C@H](CCC(=O)O)NC(=O)[C@H](CCCNC(=N)N)NC(=O)CNC(=O)[C@H](CCC(=O)O)NC(=O)[C@H](CC(C)C)NC(C)=O)C(C)C)[C@@H](C)CC)C(=O)N[C@@H](CO)C(=O)N[C@@H](CCCCN)C(=O)N[C@@H](Cc1c[nH]c2ccccc12)C(=O)N[C@@H](CO)C(=O)NC(C)(C)C(=O)N[C@@H](CCCNC(=N)N)C(=O)N[C@@H](CCCCN)C(=O)N[C@@H](CCCCNC(C)=O)C(N)=O)C(=O)O)C(=O)O)C(=O)O [compound 83] (Ac-LEGREKVRAK(Ac)I[Aib][Aib]EGK([Suc-X1])SKWS[Aib]RKK(Ac)-NH2) |
| 1.45 | 97 | CCCCCCCCCCCCCCCC(=O)N[C@@H](CCC(=O)N[C@@H](CCC(=O)N[C@@H](CCC(=O)NCCCOCCOCCOCCCNC(=O)CCC(=O)NCCCOCCOCCOCCCNC(=O)CCC(=O)NCCCOCCOCCOCCCNC(=O)CCC(=O)NCCCC[C@H](NC(=O)CNC(=O)[C@H](CCC(=O)O)NC(=O)C(C)(C)NC(=O)C(C)(C)NC(=O)[C@@H](NC(=O)[C@H](CCCCNC(C)=O)NC(=O)[C@H](C)NC(=O)[C@H](CCCNC(=N)N)NC(=O)[C@@H](NC(=O)[C@H](CCCCN)NC(=O)[C@H](CCC(=O)O)NC(=O)[C@H](CCCNC(=N)N)NC(=O)CNC(=O)[C@H](CCC(=O)O)NC(=O)[C@H](CC(C)C)NC(C)=O)C(C)C)[C@@H](C)CC)C(=O)N[C@@H](CO)C(=O)N[C@@H](CCC(N)=O)C(=O)N[C@@H](Cc1c[nH]c2ccccc12)C(=O)N[C@@H](CO)C(=O)NC(C)(C)C(=O)N[C@@H](CCCNC(=N)N)C(=O)N[C@@H](CCCCN)C(=O)N[C@@H](CCCCNC(C)=O)C(N)=O)C(=O)O)C(=O)O)C(=O)O [compound 63] (Ac-LEGREKVRAK(Ac)I[Aib][Aib]EGK([Suc-X1])SQWS[Aib]RKK(Ac)-NH2) |
| 0.19 | 97 | CCCCCCCCCCCCCCCC(=O)N[C@@H](CCC(=O)N[C@@H](CCC(=O)N[C@@H](CCC(=O)NCCCOCCOCCOCCCNC(=O)CCC(=O)NCCCOCCOCCOCCCNC(=O)CCC(=O)NCCCOCCOCCOCCCNC(=O)CCC(=O)NCCCC[C@H](NC(=O)CNC(=O)[C@H](CCC(=O)O)NC(=O)C(C)(C)NC(=O)C(C)(C)NC(=O)[C@@H](NC(=O)[C@H](CCCCNC(C)=O)NC(=O)[C@H](C)NC(=O)[C@H](CCCNC(=N)N)NC(=O)[C@@H](NC(=O)[C@H](CCCCN)NC(=O)[C@H](CCC(=O)O)NC(=O)[C@H](CCCNC(=N)N)NC(=O)CNC(=O)[C@H](CCC(=O)O)NC(=O)[C@H](CC(C)C)NC(C)=O)C(C)C)[C@@H](C)CC)C(=O)N[C@@H](CO)C(=O)N[C@H](C(=O)N[C@@H](Cc1ccccc1)C(=O)N[C@@H](CO)C(=O)N[C@@](C)(CCCCN)C(=O)N[C@@H](CCCNC(=N)N)C(=O)N[C@@H](C)C(=O)N[C@@H](CCCCN)C(N)=O)[C@@H](C)O)C(=O)O)C(=O)O)C(=O)O [compound 49] (Ac-LEGREKVRAK(Ac)I[Aib][Aib]EGK([Suc-X1])STFS[αMeK]RAK-NH2) |
